Legend:
[1] = Absolute bioavailability (F value) from single-dose oral and i.v. blood AUC; type: in vivo, Sprague–Dawley rats; details: single-dose oral vs i.v. AUC; data not shown
Protocol: (§1) All in vivo and analytical experimental segments were performed in accordance with Good Laboratory Practice standards (OECD [1998]) and the adopted TK experimental design conformed to approaches set out in OECD TG 417 ([2010]). Comparative TK data for the various test items were obtained after single doses, and repeated dose administration for 28 days. This was based on measurement of Ag levels in whole blood at various timepoints, and also total Ag content in tissues (in the repeated dose study phase). This approach facilitated a direct quantitative comparison of parameters such as bioavailability, achieved systemic exposure and the delivered Ag dose to tissues after administration of the different Ag test items. Determination of single-dose p.o. and i.v. blood-level profiles was intended to provide information on absolute bioavailability (F value). Parallel vehicle control groups were included within each phase.
Animals (4 per sex/per treatment level) received test item via i.v. injection or oral gavage administration. Intravenous injection (bolus) was via the tail vein. Oral gavage administration was performed using a suitable graduated syringe and a rubber catheter. Dosing volumes for i.v. and oral administration were calculated based on the individual animal bodyweights.

[2] = Behaviour, homogeneity and stability of dosing formulations; type: physicochemical; details: oral: 1% MC (AgMP, AgNP) or purified water (AgAc, AgNO3); i.v.: 5% glucose or purified water
Protocol: Further details are provided under Supplementary information.
Polypropylene vessels and containers were used throughout preparation and storage to limit artefactual loss of Ag from adsorption onto surfaces (Sekine et al. [2015]). Vessels were pre-cleaned with a dilute nitric acid solution and then rinsed thoroughly with ultrapure water to remove contaminants. Chloride- or phosphate-containing vehicles and reagents were avoided to prevent Ag precipitation. Dosing formulations were prepared once for the single-dose administrations, and weekly for the repeated dose phase (divided into daily aliquots). […]
An extensive analytical pre-testing program was performed to fully characterize the test items and develop protocols to optimise the homogeneity and stability of dosing formulations. […] The Ag^+ fraction in the silver powder (AgMP) dosing formulations was determined to be a maximum of 0.004%. […]
To assure their accurate concentration, uniform homogeneity and physical stability, dosing formulation concentrations were analytically verified after preparation but before first administration using inductively coupled plasma mass spectrometry (ICP-MS) for determination of total Ag content. […] Samples of each formulation prepared for i.v. and single oral administration, as well as for Weeks 1 and 4 of the repeated dosing segment were analysed. […]

[3] = Total Ag content in tissues after 28 days repeated oral dosing (ICP-MS); type: in vivo, Sprague–Dawley rats
Text: as §1, with “Comparative” for “All in vivo and analytical experimental segments were performed in accordance with Good Laboratory Practice standards (OECD [1998]) and the adopted TK experimental design conformed to approaches set out in OECD TG 417 ([2010]). Comparative”
Following final blood sampling, animals were euthanised using carbon dioxide asphyxiation, with subsequent exsanguination, prior to macroscopic examination for the investigation of any abnormalities. Tissues for analysis of total Ag content were obtained from animals administered the test items for 28 days. The tissue set comprised: brain (whole), bone marrow (from both femurs), small intestine (duodenum/ileum/jejenum), liver, spleen, ovaries, testes (excluding epididymides) and uterus. The luminal contents of GI tract samples were thoroughly flushed out with cold purified water. After weighing, tissues were retained frozen (− 20 °C).
Analysis occurred within the 48-day assured stability period.
All bioanalytical methods underwent validation before deployment.

[4] = Toxicokinetics after 28 days repeated oral gavage dosing, total Ag in whole blood (ICP-MS); details: for AUC0-t / DN AUC0-t: 0 to 96 h post-dose
[5] = 28 d oral 5 mg/kg bw/d [Ag equivalent 3.25 AgAc, 3.2 AgNO3]
[6] = 28 d oral 5 mg/kg bw/d [Ag equivalent 3.25 AgAc, 3.2 AgNO3], female
[7] = 28 d oral 5 mg/kg bw/d [Ag equivalent 3.25 AgAc, 3.2 AgNO3], male
[8] = 28 d oral 175 [114 Ag] mg/kg bw/d
[9] = 28 d oral 175 [114 Ag] mg/kg bw/d, female
[10] = 28 d oral 175 [114 Ag] mg/kg bw/d, male
[11] = 28 d oral 125 [80 Ag] mg/kg bw/d
[12] = 28 d oral 125 [80 Ag] mg/kg bw/d, female
[13] = 28 d oral 125 [80 Ag] mg/kg bw/d, male

CC(=O)[O-].[Ag+] [AgAc, Silver(I) acetate]
absolute bioavailability (F value) [1]: ≤ 5% | Behaviour in dosing vehicles [2]: Soluble up to the highest concentration of test item employed. See also Table 2 | Silver level in ovary [3, 5]: 2197 ng Ag/g tissue | Silver level in testis [3, 5]: 167 ng Ag/g tissue | Silver level in uterus [3, 5]: 188 ng Ag/g tissue | Silver level in GI tract [3, 6]: 3797 ng Ag/g tissue | Silver level in bone marrow [3, 6]: 126 ng Ag/g tissue | Silver level in brain [3, 6]: 169 ng Ag/g tissue | Silver level in liver [3, 6]: 305 ng Ag/g tissue | Silver level in spleen [3, 6]: 990 ng Ag/g tissue | Silver level in GI tract [3, 7]: 2770 ng Ag/g tissue | Silver level in bone marrow [3, 7]: 62 ng Ag/g tissue | Silver level in brain [3, 7]: 142 ng Ag/g tissue | Silver level in liver [3, 7]: 55.4 ng Ag/g tissue | Silver level in spleen [3, 7]: 283 ng Ag/g tissue | Silver level in ovary [3, 8]: 39668 ng Ag/g tissue | Silver level in testis [3, 8]: 1531 ng Ag/g tissue | Silver level in uterus [3, 8]: 11094 ng Ag/g tissue | Silver level in GI tract [3, 9]: 103814 ng Ag/g tissue | Silver level in bone marrow [3, 9]: 46761 ng Ag/g tissue | Silver level in brain [3, 9]: 1455 ng Ag/g tissue | Silver level in liver [3, 9]: 21872 ng Ag/g tissue | Silver level in spleen [3, 9]: 141560 ng Ag/g tissue | Silver level in GI tract [3, 10]: 83211 ng Ag/g tissue | Silver level in bone marrow [3, 10]: 21373 ng Ag/g tissue | Silver level in brain [3, 10]: 1458 ng Ag/g tissue | Silver level in liver [3, 10]: 22660 ng Ag/g tissue | Silver level in spleen [3, 10]: 96379 ng Ag/g tissue | Ag in tissue concentrations, comparison between test items ([3]; 28 d oral, matched 35–36 mg Ag/kg bw/d, silver acetate vs nanosilver or silver powder, nanosilver vs silver powder (except spleen of male animals), p < 0.05): significantly higher in all tissues | AUC0-t [4, 6]: 10,200 ng.h/mL | DN AUC0-t [4, 6]: 2960 (ng.h/mL)/(mg/kg bw/d) | AUC0-t [4, 7]: 6220 ng·h/mL | DN AUC0-t [4, 7]: 1770 (ng.h/mL)/(mg/kg bw/d) | Cmax [4, 6]: 216 ng/mL | Tmax [4, 6]: 3 h | t1/2 [4, 6]: 41.3 h | Cmax [4, 7]: 153 ng/mL | Tmax [4, 7]: 7.5 h | t1/2 [4, 7]: 32.1 h | AUC0-t [4, 9]: 51,000 ng.h/mL | DN AUC0-t [4, 9]: 400 (ng.h/mL)/(mg/kg bw/d) | AUC0-t [4, 10]: 43,000 ng.h/mL | DN AUC0-t [4, 10]: 342 (ng.h/mL)/(mg/kg bw/d) | Cmax [4, 9]: 930 ng/mL | Tmax [4, 9]: 3 h | t1/2 [4, 9]: 40.4 h | Cmax [4, 10]: 766 ng/mL | Tmax [4, 10]: 3 h | t1/2 [4, 10]: 36.3 h

O=[N+]([O-])[O-].[Ag+] [AgNO3, silver(I) nitrate]
absolute bioavailability (F value) [1]: ≤ 5% | Behaviour in dosing vehicles [2]: Soluble up to the highest concentration of test item employed. See also Table 2 | Silver level in ovary [3, 5]: 1484 ng Ag/g tissue | Silver level in testis [3, 5]: 231 ng Ag/g tissue | Silver level in uterus [3, 5]: 145 ng Ag/g tissue | Silver level in GI tract [3, 6]: 2438 ng Ag/g tissue | Silver level in bone marrow [3, 6]: 87 ng Ag/g tissue | Silver level in brain [3, 6]: 177 ng Ag/g tissue | Silver level in liver [3, 6]: 130 ng Ag/g tissue | Silver level in spleen [3, 6]: 722 ng Ag/g tissue | Silver level in GI tract [3, 7]: 1310 ng Ag/g tissue | Silver level in bone marrow [3, 7]: 73 ng Ag/g tissue | Silver level in brain [3, 7]: 142 ng Ag/g tissue | Silver level in liver [3, 7]: 81.7 ng Ag/g tissue | Silver level in spleen [3, 7]: 404 ng Ag/g tissue | Silver level in ovary [3, 11]: 44025 ng Ag/g tissue | Silver level in testis [3, 11]: 1464 ng Ag/g tissue | Silver level in uterus [3, 11]: 22466 ng Ag/g tissue | Silver level in GI tract [3, 12]: 14798 ng Ag/g tissue | Silver level in bone marrow [3, 12]: 25200 ng Ag/g tissue | Silver level in brain [3, 12]: 1019 ng Ag/g tissue | Silver level in liver [3, 12]: 16024 ng Ag/g tissue | Silver level in spleen [3, 12]: 62335 ng Ag/g tissue | Silver level in GI tract [3, 13]: 10592 ng Ag/g tissue | Silver level in bone marrow [3, 13]: 46553 ng Ag/g tissue | Silver level in brain [3, 13]: 1091 ng Ag/g tissue | Silver level in liver [3, 13]: 28859 ng Ag/g tissue | Silver level in spleen [3, 13]: 54070 ng Ag/g tissue | AUC0-t [4, 6]: 7690 ng·h/mL | AUC0-t [4, 7]: 5470 ng·h/mL | Cmax [4, 6]: 177 ng/mL | Tmax [4, 6]: 6 h | t1/2 [4, 6]: 37.5 h | Cmax [4, 7]: 132 ng/mL | Tmax [4, 7]: 4.5 h | t1/2 [4, 7]: 42.1 h | AUC0-t [4, 12]: 54,100 ng.h/mL | AUC0-t [4, 13]: 42,800 ng.h/mL | Cmax [4, 12]: 997 ng/mL | Tmax [4, 12]: 18 h | t1/2 [4, 12]: 39.8 h | Cmax [4, 13]: 738 ng/mL | Tmax [4, 13]: 12 h | t1/2 [4, 13]: 42.0 h

Reference: article PMC10256634, “Comparative in vivo toxicokinetics of silver powder, nanosilver and soluble silver compounds after oral administration to rats” (Archives of Toxicology, 2023)
